According to patent publication US12595517B2, “Method to treat and stratify a patient suffering from a cancer” (INSERM (INSTITUT NATIONAL DE LA SANTÉ ET DE LA RECHERCHE …, priority 2020, dated 2026):

Experiments:
Bim = Bim expression (in-cell ELISA, RT-qPCR) in A172 cells; type: cell-based, human
Protocol: In cell ELISA were performed using the Bim Colorimetric Cell-Based ELISA kit (Aviva Systems Biology, France) according to the manufacturer's instructions. Briefly, 5 000 cells were seeded in 96-well plate to be exposed or not to indicated exosome or miRNA. After that, cells were treated with a fixing solution (4% of paraformaldehyde solution) for 10 min at room temperature. Primary antibody was incubated overnight at 4° C. Adequate HRP-conjugated secondary antibodies were incubated for 1 hour at room temperature. Detection was performed at 450 nm.
After washes, cells in each well were incubated with crystal violet solution for 5 min at room temperature, according to the manufacturer's instructions. Absorbance was read at 595 nm, and used to normalize the “Bim signal”.
RNA extract is performed using RNeasy Mini QIAcube Kit and QIAcube (Qiagen, France). RT-qPCRs are performed using QuantiTect Reverse Transcription Kit, Rotor-Gene SYBR Green PCR Kit, QuantiTect Primer Assays and Rotor-Gene Q as real-time thermocycler (Qiagen, France). Reference gene RPLPO was used, with the 2-ΔΔCt relative quantification method.

3′UTR/Bim plasmid = test: Luciferase 3'UTR reporter assay; type: cell-based, human; settings: A172
Protocol: Cells were seeded in 24-well plates and were transfected with the indicated firefly luciferase constructs together with an SV40-renilla control vector. Lysates were prepared at […], and luciferase activity was measured using the Dual Luciferase Reporter Assay system (Promega, France) and a luminometer (MicroLumat Plus, EG&G Berthold, France).

[1] = test system: A549 (a lung cancer cell line); test: Chemotherapy-induced cell death, PARP and Caspase-3 cleavage in A549; type: cell-based, human; settings: A549 exposed to Exo/αPD1; CIS 5 μM, ABT263 15 μM
Protocol: Colorimetric Cell Cytotoxicity Assay Kit (Abcam, France) was used to estimate the cell viability. Briefly, cells were seeded in 96-well plate. After the realization of manufacturer's instruction, absorbance was read at 570 and 605 nm using Victor™x3 spectrophotometer (Perkin-Elmer, France).
Levels of cleaved caspase-3 and cleaved PARP are considered as both biomarkers of apoptosis. The measurement of these two parameters was performed using the Human Cleaved PARP1 and Human Cleaved Caspase-3 ELISA Kits (Abcam, France) according to the manufacturer's protocol.
In view of the data described above, associating the ineffectiveness of cisplatin+αPD1 therapy with exomiR-4315-induced Bim down-expression, we then studied the effect of a “Bim/BH3 mimetic drug” such as ABT263 on the resistance to cisplatin of A549 cells exposed to Exo/αPD1. A549 lung cancer cells were then exposed to Exo/αPD1 and Exo prior to the addition of cisplatin (CIS, 5 μM) and/or ABT263 (15 μM). ABT263 abrogated the Exo/αPD1-induced resistance to CIS (FIG. 4A).

A549-induced tumors = test: A549-inoculated xenograft mice, tumor volume; type: in vivo
Protocol: The experimental procedures using animals were in accordance with Institutional Animal Care guidelines and the French National Committee of Ethics. In addition, all experiments were conducted according to the Regulations for Animal Experimentation at the “Plate-forme […] the “Institut de Recherche en Santé de l'Université de Nantes (IRS-15N)” and approved by the French National Committee of Ethics. Cultured A549 cells were harvested by trypsinization, washed and resuspended in saline buffer. Cell suspensions were injected subcutaneously (s.c.) into the flanks of 7-/8-week-old mice (Janvier, France). Tumor volume based on caliper measurements was calculated using the modified ellipsoidal formula (Tumor volume=1⁄2(length×width2)).

Compound: 5′CCGCUUUCUGAGCUGGAC (miScript mimic, further chemistry not given here) [mimic miR-4315, Syn-hsa-miR-4315 miScript miRNA Mimic]
- Bim expression (protein and mRNA levels) (Bim): down-regulated
- luciferase activity associated with the 3′UTR/Bim plasmid (3′UTR/Bim plasmid): decreased

Compound: CC1(C)CCC(c2ccc(Cl)cc2)=C(CN2CCN(c3ccc(C(=O)NS(=O)(=O)c4ccc(N[C@H](CCN5CCOCC5)CSc5ccccc5)c(S(=O)(=O)C(F)(F)F)c4)cc3)CC2)C1 [ABT263, navitoclax]
- Exo/αPD1-induced resistance to CIS [1]: abrogated
- deleterious effect of Exo/αPD1 on the CIS-resistance of cancer cells (A549-induced tumors; A549 xenograft mice): suppressed

Compound: N.N.[Cl][Pt][Cl] [CIS, cisplatin]
- volume of A549-induced tumors (A549-induced tumors; xenograft mice): decreased
